This test has as its target T1, Human GPR120 short form (Homo sapiens, UniProt Q5NUL3).
T1 construct: expressed in transfected cells
T1 sequence (Q5NUL3 1-361): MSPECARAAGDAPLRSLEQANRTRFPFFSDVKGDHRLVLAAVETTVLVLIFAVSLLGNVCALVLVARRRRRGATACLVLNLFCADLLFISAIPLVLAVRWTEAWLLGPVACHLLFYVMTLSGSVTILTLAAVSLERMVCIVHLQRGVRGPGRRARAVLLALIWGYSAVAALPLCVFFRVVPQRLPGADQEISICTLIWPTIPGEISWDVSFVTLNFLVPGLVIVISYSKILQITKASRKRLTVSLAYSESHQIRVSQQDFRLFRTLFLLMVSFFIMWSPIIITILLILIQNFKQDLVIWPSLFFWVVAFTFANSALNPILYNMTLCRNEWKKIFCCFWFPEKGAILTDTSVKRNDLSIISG
Briefly: Human GPR120 calcium flux assay, Procedure Calcium B. The format is cell-based. The settings on record: HEK-293 cells expressing human GPR120 short form, 4200 cells/well, FLIPR. Background: A change in cytosolic calcium serves as a functional read-out for many receptors and channels.

In the case of `Cc1ccc(-n2ccc(C(F)(F)F)c2COc2c(F)cc(CCC(=O)O)cc2F)cc1` [Compound 39, 3-(3,5-difluoro-4-[[1-(4-methylphenyl)-3-(trifluoromethyl)-1H-pyrrol-2-yl]methoxy]phenyl)propanoic acid], the 50% effective concentration (EC50) – broadly, the concentration at which the effect is half-maximal – turned out to be 50 nM. As to `CCc1ccc(-n2ccc(C(F)(F)F)c2COc2ccc(CCC(=O)O)c(F)c2F)cc1` [Compound 34, 3-(4-[[1-(4-ethylphenyl)-3-(trifluoromethyl)-1H-pyrrol-2-yl]methoxy]-2,3-difluorophenyl)propanoic acid], the EC50 stood at 40 nM. The same measure for `OCCCc1ccc(OCc2c(C(F)(F)F)ccn2-c2ccc(Cl)cc2)c(F)c1F` [Compound 29, 3-(4-{[1-(4-Chlorophenyl)-3-(trifluoromethyl)-1H-pyrrol-2-yl]methoxy}-2,3-difluorophenyl)propan-1-ol]: 162 nM.

These data come from patent publication US8912227B1, “Bicyclic pyrrole derivatives useful as agonists of GPR120” (Janssen Pharmaceutica NV, priority 2014, dated 2014).
